This is an account of results in paper PMC12079444, “Antagonist Targeting the Species‐Specific Fatty Acid Dehydrogenase/Isomerase FabX for Anti‐H. pylori Infection” (Advanced Science, 2025).

Molecules are shown by their SMILES. In brackets after ≈: the same amount, converted by molar mass.

Experiment [1] deals with T1, FabX (Helicobacter pylori, UniProt O25465).
T1 construct: gene HP_0773; recombinant from pQE2 vector in E. coli BL21(DE3) Rosetta, Ni-NTA, HiTrap-SP, Superdex75; FMN and [4Fe-4S] cofactors
T1 sequence (O25465 1-363): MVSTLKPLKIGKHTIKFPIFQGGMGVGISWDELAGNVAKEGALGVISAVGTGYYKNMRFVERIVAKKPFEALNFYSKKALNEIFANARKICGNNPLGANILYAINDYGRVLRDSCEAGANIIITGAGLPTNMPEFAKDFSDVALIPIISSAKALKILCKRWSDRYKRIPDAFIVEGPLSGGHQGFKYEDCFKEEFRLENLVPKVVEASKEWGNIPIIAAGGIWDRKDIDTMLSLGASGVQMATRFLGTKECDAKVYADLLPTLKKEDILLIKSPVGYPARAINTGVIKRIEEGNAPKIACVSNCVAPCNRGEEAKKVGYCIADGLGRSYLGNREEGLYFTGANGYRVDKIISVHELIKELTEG
The experiment in a line: biochemical. More on the design: FabX inhibition in multienzymatic cascade coupled to FabI, NADH consumption read-out. The conditions noted are these: read-out: % inhibition. An excerpt:
To discover small molecule inhibitors targeting FabX, we performed protein thermal shift assay (PTSA) based high‐throughput screening against an in‐house chemical library of 11000 small molecule compounds, and established a multienzymatic cascade reaction system by incorporating the enoyl acyl carrier protein reductase FabI from H. pylori into the hit validation system, where FabI catalyzes the reduction of FabX catalytic product enoyl‐ACP in the fourth step of the elongation cycle, accompanying the elimination of NADH (Figure 2A,B). […] The subcloning, expression, and purification of FabX, FabI, and ACP from H. pylori, FabK from S. pneumoniae, and FabA from E. coli were described previously.^[ [19] ^] Briefly, fabX, fabI, fabK, and fabA genes were subcloned to pQE2 vector, while the Acp gene was subcloned to pET32a vector, respectively. The proteins were expressed in BL21(DE3) Rosetta cells, purified by using Ni‐NTA affinity column, HiTrap‐SP column, GE HiLoad 16/600 Superdex75 prep grade gel‐filtration column. The peaks from the gel‐filtration column were further pooled, concentrated, and the final concentration of the proteins was quantified by the Bradford reagent purchased from Bio‐Rad.

In experiment [2] the test system is T2, Helicobacter pylori Hp129.
T2 construct: Hp129
The experiment in a line: microbe, parasite or virus in culture. The conditions noted are these: HP129, read-out: MIC. The method, then:
(§1) The sensitivity of H. pylori strains to various compounds was assessed by determining the MIC and evaluating the growth of the strains on the drug‐containing agar media. The MIC was measured using the broth microdilution assay as described previously.^[ [27] ^] Twofold serial dilutions of the test compounds were prepared using BHI broth supplemented with 10% FCS in 96‐well microtiter plates. Diluted H. pylori cultures, adjusted to a final concentration of 5 × 10^5 CFU mL^−1, were then added to each well. The cultures were incubated for 48–72 h in a microaerobic environment at 37 °C. The MIC was determined by visual inspection. H. pylori strains used in this study were cultured on brain heart infusion (BHI) broth (Oxoid, UK) or Columbia blood agar medium (Oxoid, UK) supplemented with 10% fetal calf serum (FCS). The cultures were incubated at 37 °C for 48–72 h under microaerobic environments in a double‐gas CO2 incubator (Binder, Germany). The wild‐type strains G27 and NSH57 used in this study were kindly provided by Prof. Nina R. Salama from the Fred Hutchinson Cancer Research Center (USA). Three clinical H. pylori strains (BYES129, BY924, and JIGC0009) were isolated from biopsy samples from three patients with gastritis or gastric cancer using standard protocols. Strains BHKS551 (NSH57 IR0203::fabA ΔfabX) and BHKS568 (NSH57 IR0203::fabX ΔfabX) were described previously.^[ [19] ^] The following 15 reference strains of different species were also used: Escherichia coli ATCC 25922, Klebsiella pneumoniae ATCC 35657, Pseudomonas aeruginosa PAO1, Salmonella enterica serovar Typhimurium ATCC 14028, Shigella dysenteriae Sd197, Acinetobacter baumannii ATCC 19606, Proteus mirabilis ATCC 29906, Enterobacter cloacae ATCC 13047, Stenotrophomonas maltophilia ATCC 51331, Bacillus subtilis 168, Enterococcus faecium ATCC 19434, Staphylococcus aureus ATCC 25923, Staphylococcus haemolyticus ATCC 29970, Listeria monocytogenes EGDe, and Morganella morganii ATCC 25830. These non‐Helicobacter bacterial strains were cultured as described previously.^[ [25] ^] We evaluated the antibacterial activities of selected compounds (IC 50 < 1 × 10^−6 M) against several H. pylori strains (Table S3∖, Supporting Information), particularly against strains BHKS551 and BHKS211 (the FabX overexpressed strain, hereinafter referred to as FabX^OE) to validate the on‐target effect in vivo. Note that FabX is overproduced 3.32‐fold in strain BHKS211 compared to the control strain BHKS210 carrying the empty vector (Figure S3, Supporting Information). […] This could be due to the fact that the carboxyl group of 8j readily deprotonates and acquires negative charge at physiological pH, which reduces its lipophilicity and prevents it from permeating the bacterial cell membrane. To address this issue, we employed a prodrug strategy and synthesized esters from 8j by attaching it to lipophilic alcohols (8p‐8u) or a lipophilic cation 6‐hydroxyhexyltriphenylphosphonium bromide (8v) (Figure 3). […] Compounds 8p‐8s were synthesized as shown in Scheme 1, while compounds 8t‐8v were synthesized as described in Scheme 3 . 8q was hydrolyzed with NaOH to yield 8j, which was subsequently reacted with various alcohols by Steglich esterification to produce compounds 8t‐8v.

For experiment [3], the system named is T3, Helicobacter pylori BHKS 568.
T3 construct: BHKS568 (NSH57 IR0203::fabX ΔfabX) native fabX relocated to IR0203
Put plainly: microbe, parasite or virus in culture. The conditions noted are these: BHKS568, read-out: MIC. The method, then: as §1

The subject of experiment [4] is T4, Helicobacter pylori BHKS 210.
T4 construct: BHKS210 (NSH57/empty vector pTM117) wild-type NSH57 with empty vector
Put plainly: microbe, parasite or virus in culture. The conditions noted are these: BHKS210, read-out: MIC. The method, then:
as §1

The test system of another experiment is T5, Helicobacter pylori G27.
T5 construct: G27
The experiment in a line: microbe, parasite or virus in culture. The conditions noted are these: G27, read-out: MIC. The method, then: as §1

Experiment [5] deals with T1, FabX. The experiment in a line: isothermal titration calorimetry. It counts as binding.
Experiment [6] deals with T1, FabX. The experiment in a line: FabX-FabI coupled assay, NADH absorbance […] nm. It counts as biochemical.
Experiment [7] has as its target T1, FabX. Put plainly: FabX-FabI coupled assay, NADH absorbance […] nm. It counts as biochemical. The conditions noted are these: read-out: FabX enzymatic activity / 10 × 10^-6 M [%].
The target of experiment [8] is T1, FabX. The experiment in a line: X-ray crystal structure, […] Å. It counts as binding. The conditions noted are these: bound cofactor in the complex with FBX-1991.

`O=C(O)c1cccc(NS(=O)(=O)c2cccnc2Nc2ccc(Cl)cc2Cl)c1` [8j, FBX-1872]: the inhibition at 1 µM at FabX [1] amounted to 65%. Moreover, the inhibition at 10 µM at FabX [1] came to 100%. Besides, the MIC in [2] is above 64 µg/mL; in experiment [3], above 64 µg/mL; in experiment [4], above 128 µg/mL; in the experiment with Helicobacter pylori G27 it was above 64 µg/mL. In addition, the affinity on FabX [5], expressed as Kd, was 0.435 ± 0.046 µM. This compound displayed an IC50 at FabX [6] of 0.437 ± 0.042 µM.

Regarding `COC(=O)c1cccc(NS(=O)(=O)c2cccnc2Nc2ccc(Cl)cc2Cl)c1` [8p, FBX-1991], the inhibition at 1 µM on FabX [1] is 83%. In addition, the inhibition at 10 µM on FabX [1] stood at 98%. Also, the MIC (in [2]; in experiment [3]; in experiment [4]; in the experiment on Helicobacter pylori G27) was 16 µg/mL (≈ 35.4 µM) throughout. The IC50 against FabX [6] was 0.158 ± 0.03 µM.

Take `CCOC(=O)c1cccc(NS(=O)(=O)c2cccnc2Nc2ccc(Cl)cc2Cl)c1` [8q]: at FabX [1], the inhibition at 1 µM came out at 60%. In addition, the inhibition at 10 µM at FabX [1] is 100%. For the same compound, the MIC in experiment [2] came out at 16 µg/mL (≈ 34.3 µM); in [3] it was 16 µg/mL (≈ 34.3 µM); in experiment [4], 32 µg/mL (≈ 68.6 µM); in the experiment on Helicobacter pylori G27, 16 µg/mL (≈ 34.3 µM). On FabX [6], this compound had an IC50 of 0.552 ± 0.118 µM.

As for `CC(C)OC(=O)c1cccc(NS(=O)(=O)c2cccnc2Nc2ccc(Cl)cc2Cl)c1` [8r], the MIC was 32 µg/mL (≈ 66.6 µM) in experiment [2], 32 µg/mL (≈ 66.6 µM) in [3], 32 µg/mL (≈ 66.6 µM) in [4] and 64 µg/mL (≈ 133 µM) with Helicobacter pylori G27. The inhibition at 10 µM on FabX [7] was 37%.

Turning to `CC(C)(C)OC(=O)c1cccc(NS(=O)(=O)c2cccnc2Nc2ccc(Cl)cc2Cl)c1` [8s], the MIC amounted to 32 µg/mL (≈ 64.7 µM) in experiment [2], 32 µg/mL (≈ 64.7 µM) in experiment [3], 32 µg/mL (≈ 64.7 µM) in experiment [4] and 64 µg/mL (≈ 129 µM) with Helicobacter pylori G27. For the same compound, the inhibition at 10 µM on FabX [7] amounted to 10%.

`O=C(OCCCCCC[P+](c1ccccc1)(c1ccccc1)c1ccccc1)c1cccc(NS(=O)(=O)c2cccnc2Nc2ccc(Cl)cc2Cl)c1` [8v]: the MIC in experiment [3] was found to be 16 µg/mL; in experiment [4], 16 µg/mL; with Helicobacter pylori G27, 32 µg/mL. Besides, the inhibition at 10 µM at FabX [7] came to 42%.

As to `Cc1cc2nc3c(=O)[nH]c(=O)nc-3n(C[C@H](O)[C@H](O)[C@H](O)COP(=O)(O)O)c2cc1C` [FMN], the “X-ray crystal structure, 2.00 Å” value on FabX [8] is “binds in the region between the FMN cofactor and the catalytic tunnel of FabX”.
